# Test results from ChEMBL document CHEMBL1201862, “PubChem BioAssay data set” (2004).
# Active and inactive are the calls of the source.
# Key:
# Vero = experiment: mammalian cell viability reduction – secondary assay, cytotoxicity control for West Nile virus antiviral project, dose response (AID 1650); type: functional; conditions: Chlorocebus sabaeus
# [1] = Fluorescence-based cell-based high throughput dose response assay for inhibitors of the interaction of nucleotide-binding oligomerization domain containing 2 (NOD2) and the receptor-interacting serine-threonine kinase 2 (RIPK2).; type: functional; conditions: Homo sapiens
# Paired box protein Pax-8 = Paired box protein Pax-8 (Homo sapiens, UniProt Q06710); experiment: PAX8 transcriptional activity inhibition in RMG-I – RMG-I cells, luciferase, cherry-pick, dose response (AID 687027); type: functional, cell-based;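 also: luciferase reporter driven by Pax8 target thyroperoxidase promoter measured by SteadyGlo luminescence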
# Paired box protein Pax-8, sequence (Q06710 whole entry): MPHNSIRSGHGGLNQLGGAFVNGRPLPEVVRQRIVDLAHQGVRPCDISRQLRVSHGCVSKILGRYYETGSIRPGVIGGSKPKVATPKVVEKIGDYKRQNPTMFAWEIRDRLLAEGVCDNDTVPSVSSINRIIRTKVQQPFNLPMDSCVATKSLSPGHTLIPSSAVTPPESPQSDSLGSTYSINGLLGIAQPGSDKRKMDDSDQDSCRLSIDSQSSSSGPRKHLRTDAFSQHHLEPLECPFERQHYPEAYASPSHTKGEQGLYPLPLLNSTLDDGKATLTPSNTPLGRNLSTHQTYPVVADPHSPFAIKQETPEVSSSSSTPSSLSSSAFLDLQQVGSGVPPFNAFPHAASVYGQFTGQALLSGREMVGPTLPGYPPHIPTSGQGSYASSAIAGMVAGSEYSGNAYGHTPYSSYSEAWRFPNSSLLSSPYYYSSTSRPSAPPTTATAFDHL
# [2] = A549 cell cytotoxicity, dose response, cytotoxicity control, plate reader, cherry-pick, antagonist series (AID 743412); type: functional, cell-based
# [3] = toxicity toward HepG2 liver cells – cell-based, plate reader, cherry-pick, antagonist series, cytotoxicity control, dose response (AID 743416); type: functional
# [4] = blockers of bursicon-stimulated LGR2 cAMP reporter – cell-based, HEK293, CRE-luciferase reporter, cherry pick, set 2, dose response (AID 743343); type: functional;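 also: transfected cells were stimulated with diluted bursicon conditioned medium after compound addition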
# [5] = blockade of melanocortin 4 receptor signaling – cell-based, plate reader, cherry pick, counter-screen for LGR2 antagonist project, dose response (AID 743444); type: functional;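 also: transfected HEK 293 cells stimulated with alpha-MSH peptide; potency of inhibitors of the alpha-MSH evoked signal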
# [6] = viability loss in HEK293 cells – cell-based, plate reader, cherry-picked samples, cytotoxicity control, dose response (AID 743446); type: functional
# [7] = A2780 cell killing – plate reader, dry powder samples, cytotoxicity control, dose response (AID 743046); type: functional, cell-based
# [8] = OVCAR-3 cell viability loss – plate reader, dry powder samples, PAX8 inhibitor project, dose response (AID 743044); type: functional, cell-based
# [9] = OVCAR8 cell viability loss – plate reader, dry powder samples, PAX8 project, dose response (AID 743197); type: functional, cell-based; conditions: OVCAR-8
# Kallikrein-7 = Kallikrein-7 (Homo sapiens, UniProt P49862); experiment: Fluorescence Intensity-based biochemical primary high throughput dose response assay to identify activators of kallikrein-7 (K7) zymogen.
# Kallikrein-7, sequence (P49862 whole entry): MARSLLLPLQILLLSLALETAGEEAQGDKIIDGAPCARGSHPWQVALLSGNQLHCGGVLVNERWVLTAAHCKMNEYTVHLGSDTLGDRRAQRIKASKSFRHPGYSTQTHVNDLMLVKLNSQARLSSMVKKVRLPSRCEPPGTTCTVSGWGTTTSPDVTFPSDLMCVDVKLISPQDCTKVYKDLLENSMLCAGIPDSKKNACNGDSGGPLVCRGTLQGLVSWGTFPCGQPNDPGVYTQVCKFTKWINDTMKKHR
# [10] = viability inhibitors of stage V gametocytes – luminescence, dose response (AID 1117278); type: functional, cell-based;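 also: gametocytes exposed to compound for 24 hours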
# [11] = viability loss in human Jurkat cells – cell-based, luminescence, cytotoxicity control for P. falciparum gametocyte viability project, dose response (AID 1117277); type: functional;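 also: potency reflects loss of cellular ATP meaning fewer viable cells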
# [12] = CellTiter-Glo luminescence survival assay, SW480 colon tumor line, concentration-response curve, half-maximal inhibitory concentration (AID 1117338); type: functional
# [13] = RKO cell viability reduction, dose response, CellTiter-Glo luminescence (AID 1117322); type: functional
# [14] = cytotoxicity toward HCT116 cells – cell-based, CellTiter-Glo luminescence, IC50, dose response (AID 1117332); type: functional; conditions: HCT-116
# [15] = SNU-C1 cell viability reduction, dose response, CellTiter-Glo luminescence (AID 1117323); type: functional, cell-based
# [16] = cytotoxicity toward Colo320 cells – cell-based, CellTiter-Glo luminescence, IC50, dose response (AID 1117334); type: functional; conditions: COLO 320
# [17] = cytotoxicity toward HT-29 cells – cell-based, CellTiter-Glo luminescence, IC50, dose response (AID 1117330); type: functional
# [18] = Reduced DLD-1 viability, concentration-response, CellTiter-Glo luminescence (AID 1117352); type: functional
smiles,measurement,setting,value
COc1ccc2nc(Nc3nc(O)cc(CSc4nnnn4-c4ccccc4)n3)nc(C)c2c1,CC50,Vero,> 100 µM (active)
O=C1NC2C(O)C(O)C(O)C(O)C2c2cc3c(c(O)c21)OCO3 (configuration not stated),IC50,[1],49.8 µM (inactive)
same,AC50,Paired box protein Pax-8,< 0.26 µM (active)
same,AC50,[2],0.358 µM (active)
same,AC50,[3],0.428 µM (active)
same,AC50,[4],0.362 µM (active)
same,AC50,[5],0.372 µM (active)
same,AC50,[6],0.321 µM (active)
C[C@H]1CCCCO[C@@H](CN(C)Cc2ccc(C(F)(F)F)cc2)[C@@H](C)CN([C@@H](C)CO)C(=O)c2cc(NC(=O)Cc3ccccc3)ccc2O1,AC50,Paired box protein Pax-8,7.94 µM (active)
same,AC50,[7],0.963 µM (active)
same,AC50,[8],11.4 µM (active)
same,AC50,[9],30.8 µM (active)
Clc1ccc(-c2cnc3cccnn23)cc1,EC50,Kallikrein-7,> 69.5 µM (inactive)
CS(=O)(=O)Cc1cc(N2CCCC2)nc(-c2ccccc2)n1,IC50,[10],> 109 µM (inactive)
same,IC50,[11],> 83.3 µM (inactive)
C[C@@H]1CN([C@H](C)CO)C(=O)Cc2cc(NS(=O)(=O)c3ccc(Cl)cc3)ccc2O[C@@H]1CN(C)Cc1ccc(C(F)(F)F)cc1,AC50,[2],7.62 µM (active)
same,AC50,[3],10.4 µM (active)
same,AC50,[4],22.7 µM (active)
same,AC50,[5],20.2 µM (active)
same,AC50,[6],15.8 µM (active)
CN(CCOc1ccc(CC2SC(=O)NC2=O)cc1)c1ccccn1 (configuration not stated) [ROSIGLITAZONE],IC50,[12],> 20 µM (inactive)
same,IC50,[13],> 20 µM (inactive)
same,IC50,[14],> 20 µM (inactive)
same,IC50,[15],8.69 µM (inactive)
same,IC50,[16],> 20 µM (inactive)
same,IC50,[17],> 20 µM (inactive)
same,IC50,[18],> 20 µM (inactive)
